The record followed here is patent US20080119412A1, “Polypeptides for Modulating Binding of Trp Channel Proteins and Trp- Associated Proteins” (NoNO Inc., priority 2003, published 2008).

Experiment [1] deals with T1, INADL d3 (Homo sapiens, UniProt Q8NI35).
T1 construct: made in house; host or cells: E. coli (DH5alpha, BL21 or JM109)
T1 sequence (Q8NI35 with tags, fused parts or gaps): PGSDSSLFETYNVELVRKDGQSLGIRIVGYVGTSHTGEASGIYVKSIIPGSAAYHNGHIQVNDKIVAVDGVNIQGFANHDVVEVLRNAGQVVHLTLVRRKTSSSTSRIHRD
Briefly: G3 assay titration, GST-PDZ fusion / biotinylated peptide. Type of experiment: binding. How it is done: (§1) The G3 assay is identical to the G0 assay with the following exceptions. The peptides are typically present at 0.1 μM rather than 20 μM. The peptides are also pre-incubated with the HRP-streptavidin prior to adding to the assay plate. In the G0 assay, free peptide is incubated with the PDZ proteins prior to the addition of the HRP-streptavidin. Thus, for the G0 assay one can lose signal if the bound peptide dissociates from the PDZ protein prior to the addition of the HRP-streptavidin. In the G3 modified assay the HRP-streptavidin/peptide complex is added to the plate in one step, thus increasing the likelihood that all the bound peptide will be bound to HRP-streptavidin. The G3 modified assay increases the chance of observing weak interactions.
(§2) This example describes assays to identify binding between TRPM7 and PDZ domains. GST-PDZ fusions are produced that each contain an entire PDZ domain (or multiple PDZ domains), the collection encompassing approximately 90% of all PDZ domains identified in the human genome. (See Table 5 and Section V (PDZ Proteins and PL Protein Interactions Disclosure). Biotinylated peptide corresponding to 11 residues of Tat coupled to the C-terminal 9 amino acids of TRPM7 ([…]; SEQ ID NO:258) is synthesized and purified by HPLC.
(§3) • Nunc MaxiSorp 96 well Immuno-plate, Nunc • PBS pH 7.4 (phosphate buffered saline, 8 g NaCl, 0.29 g KCl, 1.44 g Na2HPO4, 0.24 g KH2PO4, add H2O to 1 liter and pH 7.4; 0.2 μm filter) • Assay Buffer: 2% BSA in PBS (20 g of bovine serum albumin per liter PBS, fraction V, ICN Biomedicals, cat#IC15142983 • Goat anti-GST polyclonal Ab, stock 5 mg/ml, stored at 4° C., Amersham Pharmacia cat#27-4577-01 • Dilute 1:1000 in PBS, final concentration 5 μg/ml. • HRP-Streptavidin, 2.5 mg/2 ml stock stored at 4° C., Zymed cat#43-4323, dilute 1:2000 into Assay buffer, final concentration of […] • Wash Buffer, PBS • Biotinylated peptides (HPLC purified, stock solution stored in −20° C. freezer) • GST-PRISM proteins (stock stored at −80° C., after 1st thaw store in −10° C. freezer) • TMB (3,3′,5,5′, teramethylbensidine), tablets, Sigma cat.#T5525 • Per plate, dissolve 1 tablet in 1 ml DMSO, add 9 ml Citrate/Phosphate buffer pH 5.4 and 2 μL H2O2 • 0.1 M H2SO4, Sigma cat.#S1526 • 12-w multichannel pipettor & tips • 50 ml reagent reservoirs, Costar#4870 • 50, 15 ml polypropylene conical tubes • Costar Transtar 96 Costar #7605 • Transtar 96 Cartridge Costar #7610 • Molecular Devices microplate reader (450 & 650 nm filters) with SoftMax Pro software *When using reagents stored at or 4° C. or −20° C., remove & keep on ice
(§4) • 1. Coat plate with 100 μl of 5 μg/ml anti-GST, overnight at 4° C. • 2. Dump contents of plate & out tap dry on paper towels • 3. Block with 200 μl Assay Buffer for 2 hrs at room temperature • 4. Prepare proteins at 5 μg/ml in Assay Buffer • 5. Wash 3× with cold PBS (4° C.), avoiding letting the plates dry out • 6. Add proteins at 50 μl per well, incubate 1 to 2 hrs at 4° C. • 7. Prepare peptides to desired concentration in Assay Buffer • 8. Wash 3× with cold PBS (4° C.), avoiding letting the plates dry out • 9. Add HRP-Streptavidin/peptide complex [prepared by incubating for 20 minutes at room temperature HRP-Streptavidin (1:2000) with the desired biotin-peptide concentration for 20 minutes at room temperature] at 50 μl per well on ice • 10. Place at room temperature for exactly 30 minutes • 11. Promptly wash 5× with PBS at room temperature • 12. Add 100 μl/well TMB substrate (write time on plate) • 13. Incubate in dark at room temperature for a maximum of 30 minutes • 14. Read plate at 25 minutes (650 nm), optional • 15. Stop reaction with 100 μl of 0.18 M H2SO4, 30 minutes after adding TMB • Take last reading at 450 nm soon after stopping reaction
(§5) The G3 assay was performed using 0.1 μM peptide representing 11 amino acids of Tat fused to the final 9 amino acids of TRPM7 ([…]; SEQ ID NO:258). […]

In experiment [2] the target is T2, ZO-1 d2 (Homo sapiens, UniProt Q07157, DEL264-264).
T2 construct: made in house; host or cells: E. coli (DH5alpha, BL21 or JM109)
T2 sequence (Q07157 with tags, fused parts or gaps DEL264-264): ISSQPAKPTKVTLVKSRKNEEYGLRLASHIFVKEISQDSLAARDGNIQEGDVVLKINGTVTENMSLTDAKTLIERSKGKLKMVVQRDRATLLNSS
Described as above. In kind it is binding. How it is done: as §1, §2, §3, §4, §5

Residues, ends and D or L forms follow the SMILES beside them. No end group written: not given here. *: point of attachment. Biotin = O=C1N[C@H]2[C@H](CS[C@H]2CCCCC(=O)*)N1

`CC(C)[C@H](NC(=O)[C@H](Cc1c[nH]c2ccccc12)NC(=O)[C@@H](NC(=O)[C@H](CCC(=O)O)NC(=O)[C@H](CCCNC(=N)N)NC(=O)[C@H](CCCNC(=N)N)NC(=O)CNC(=O)[C@H](CCCNC(=N)N)NC(=O)[C@H](C)NC(=O)[C@H](CCCNC(=N)N)NC(=O)[C@H](CCCNC(=N)N)NC(=O)[C@H](CCCNC(=N)N)NC(=O)[C@H](CCC(N)=O)NC(=O)[C@H](CCCNC(=N)N)NC(=O)[C@H](CCCNC(=N)N)NC(=O)[C@H](CCCCN)NC(=O)[C@H](CCCCN)NC(=O)[C@H](CCCNC(=N)N)NC(=O)CNC(=O)[C@H](Cc1ccc(O)cc1)NC(=O)CCCC[C@@H]1SC[C@@H]2NC(=O)N[C@@H]21)[C@@H](C)O)C(=O)O` [Peptide 1854] (Biotin-YGRKKRRQRRRARGRRETWV-OH): the half-maximal effective concentration (EC50) in experiment [1] is less than 20 nM.

The compound `CC[C@H](C)[C@H](NC(=O)[C@H](CCCCN)NC(=O)[C@H](CCCNC(=N)N)NC(=O)[C@H](CC(=O)O)NC(=O)CNC(=O)[C@H](CCCNC(=N)N)NC(=O)[C@H](C)NC(=O)[C@H](CCCNC(=N)N)NC(=O)[C@H](CCCNC(=N)N)NC(=O)[C@H](CCCNC(=N)N)NC(=O)[C@H](CCC(N)=O)NC(=O)[C@H](CCCNC(=N)N)NC(=O)[C@H](CCCNC(=N)N)NC(=O)[C@H](CCCCN)NC(=O)[C@H](CCCCN)NC(=O)[C@H](CCCNC(=N)N)NC(=O)CNC(=O)[C@H](Cc1ccc(O)cc1)NC(=O)CCCC[C@@H]1SC[C@@H]2NC(=O)N[C@@H]21)C(=O)N[C@@H](CCCNC(=N)N)C(=O)N[C@H](C(=O)O)C(C)C` [Peptide 1836] (Biotin-YGRKKRRQRRRARGDRKIRV-OH) yielded an EC50 in experiment [2] of less than 10 nM.

`CC(C)[C@H](NC(=O)[C@H](CCC(=O)O)NC(=O)[C@@H](NC(=O)[C@H](CCCCN)NC(=O)[C@H](CCCNC(=N)N)NC(=O)[C@H](CC(=O)O)NC(=O)[C@@H](NC(=O)[C@H](CCCNC(=N)N)NC(=O)[C@H](C)NC(=O)[C@H](CCCNC(=N)N)NC(=O)[C@H](CCCNC(=N)N)NC(=O)[C@H](CCCNC(=N)N)NC(=O)[C@H](CCC(N)=O)NC(=O)[C@H](CCCNC(=N)N)NC(=O)[C@H](CCCNC(=N)N)NC(=O)[C@H](CCCCN)NC(=O)[C@H](CCCCN)NC(=O)[C@H](CCCNC(=N)N)NC(=O)CNC(=O)[C@H](Cc1ccc(O)cc1)NC(=O)CCCC[C@@H]1SC[C@@H]2NC(=O)N[C@@H]21)[C@@H](C)O)C(C)C)C(=O)O` [Peptide 1837] (Biotin-YGRKKRRQRRRARTDRKVEV-OH) had an EC50 in experiment [2] of less than 20 nM.

In the case of “Biotin-YGRKKRRQRRRSRTDRLEYV [Peptide 1846]”, the “ODmax (450 nm)” value in experiment [1] (Table 10, titration of peptides with INADL d3) is 1.50.

In turn, `CC[C@H](C)[C@H](NC(=O)[C@H](CO)NC(=O)[C@@H](NC(=O)[C@H](C)NC(=O)[C@H](C)NC(=O)[C@@H](NC(=O)[C@H](C)NC(=O)[C@H](CCCNC(=N)N)NC(=O)[C@H](CCCNC(=N)N)NC(=O)[C@H](CCCNC(=N)N)NC(=O)[C@H](CCC(N)=O)NC(=O)[C@H](CCCNC(=N)N)NC(=O)[C@H](CCCNC(=N)N)NC(=O)[C@H](CCCCN)NC(=O)[C@H](CCCCN)NC(=O)[C@H](CCCNC(=N)N)NC(=O)CNC(=O)[C@H](Cc1ccc(O)cc1)NC(=O)CCCC[C@@H]1SC[C@@H]2NC(=O)N[C@@H]21)C(C)C)[C@@H](C)O)C(=O)N[C@@H](CC(N)=O)C(=O)N[C@@H](CC(C)C)C(=O)O` [Peptide 1791] (Biotin-YGRKKRRQRRRAVAATSINL-OH) registered an EC50 in experiment [2] of less than 100 nM.

Consider `CC(C)[C@H](NC(=O)[C@@H]1CCCN1C(=O)[C@@H](NC(=O)[C@H](CCCCN)NC(=O)[C@H](CCCNC(=N)N)NC(=O)[C@H](CC(=O)O)NC(=O)CNC(=O)[C@H](CCCNC(=N)N)NC(=O)[C@H](C)NC(=O)[C@H](CCCNC(=N)N)NC(=O)[C@H](CCCNC(=N)N)NC(=O)[C@H](CCCNC(=N)N)NC(=O)[C@H](CCC(N)=O)NC(=O)[C@H](CCCNC(=N)N)NC(=O)[C@H](CCCNC(=N)N)NC(=O)[C@H](CCCCN)NC(=O)[C@H](CCCCN)NC(=O)[C@H](CCCNC(=N)N)NC(=O)CNC(=O)[C@H](Cc1ccc(O)cc1)NC(=O)CCCC[C@@H]1SC[C@@H]2NC(=O)N[C@@H]21)C(C)C)C(=O)O` [Peptide 1841] (Biotin-YGRKKRRQRRRARGDRKVPV-OH), for which, in experiment [2], the EC50 was less than 20 nM.

For orientation: EC50 means the concentration at which the effect is half-maximal. A lower EC50 goes with greater potency.
